The target in one test is T1, HDAC1 (Homo sapiens, UniProt Q13547).
T1 construct: FLAG (C)
Nature of the test: HDAC1 inhibition, modified Fluor-de-Lys assay. It counts as biochemical. Conditions: 3 h pre-incubation, 0.3 nM enzyme, 20 μM substrate BML-KI104; read-out: HDAC-1 IC50. Here is the method: (§1) Human HDAC Enzyme Inhibitor FLUOR-DE-LYS Assay Materials
(§2) Recombinant human HDAC1, HDAC2, and HDAC3/SMRT heterodimer were prepared by Merck Research Laboratories. […] The eluted protein was then passed over an anti-HDAC1 immunoaffinity column to remove any complexes containing HDAC1. […]
(§3) The histone deacetylase activities of HDAC1, HDAC2, HDAC3, HDAC6, and HDAC8 were measured in modified Fluor-de-Lys assays in 384-well format. In this assay, HDAC enzymes are initially incubated with an ε-acetyl (or -trifluoroacetyl)-L-lysine-containing substrate with a C-terminal amide having aminomethylcoumarin as the amine component. HDACs cleave the ε-acetyl group, rendering the resulting product susceptible to AMC cleavage by trypsin. The released AMC is then detected by its fluorescence.
(§4) The HDAC 1, 2 assays employed buffer A, which contained 20 mM HEPES, pH 8.0, 1 mM MgCl2, 137 mM NaCl, 2.7 mM KCl, 0.05% BSA. The HDAC3/SMRT assay employed buffer B, consisting of 20 mM HEPES, pH 8.0, 1 mM MgCl2, 50 mM NaCl, 2.7 mM KCl, 0.05% BSA, 0.005% Tween 20, and 10 μM IP4. The HDAC6 assay employed buffer C, consisting of 20 mM HEPES, pH 8.0, 1 mM MgCl2, 137 mM NaCl, 2.7 mM KCl, 0.5 mM TCEP (Calbiochem) and 0.05% BSA. The HDAC8 assay employed buffer D, consisting of 20 mM HEPES, pH 8.0, 1 mM MgCl2, 100 mM NaCl, 20 mM KCl, 0.1% n-octyl-β-D-glucoside (Anatrace, Maumee, Ohio) and 0.05% BSA. All steps were performed at room temperature (23° C.). The assay was performed by pre-incubating serial dilutions of test compounds with the target HDAC prior to initiation with substrate. Each compound was titrated in a 10-point dose response, using a 1:3 fold dilution scheme, with 0.15 ul of solution added by ECHO555 to the plate, followed by the addition of 20 μl of the appropriate HDAC isoform diluted in appropriate assay buffer. […] Final conditions used for each assay were: 1. HDAC 1, 0.3 nM total enzyme, 20 μM substrate BML-KI104; 2. HDAC 2, 1.5 nM total enzyme, 40 μM substrate BML-KI104; 3. HDAC 3/SMRT, 0.3 nM total enzyme, 20 μM substrate BML-KI104; 4. HDAC 6, 1.3 nM total enzyme, 2.5 μM substrate BML-KI104; 5. HDAC 8, 1.3 nM total enzyme, 200 μM substrate BML-KI178; the final high dose of test compound was 30 μM. For potent compounds, 900 nM was used as the final high dose. The reactions were stopped and developed by addition of 30 ul of HDAC developer solution containing a saturating level of HDAC inhibitor as follows: 1.

The next test has as its target T2, HDAC2 (Homo sapiens, UniProt Q92769).
T2 construct: Full length human HDAC2-FLAG was expressed in baculovirus infected Sf9 cells; FLAG (C); host or cells: baculovirus infected Sf9 cells
Nature of the test: HDAC2 inhibition, modified Fluor-de-Lys assay. It counts as biochemical. Conditions: 3 h pre-incubation, 40 μM substrate BML-KI104, read-out: HDAC-2 IC50. The procedure:
as §1, §2, §3, §4

Another test addresses T3, HDAC3/SMRT heterodimer (Homo sapiens, UniProt O15379).
T3 construct: FLAG (C)
Nature of the test: HDAC3/SMRT inhibition, modified Fluor-de-Lys assay. Format: biochemical. Conditions: 3 h pre-incubation, 0.3 nM enzyme, 20 μM substrate BML-KI104, read-out: HDAC-3 IC50. The procedure: as §1, §2, §3, §4

For the next test, the system named is KARN cells (Jurkat 2C4). Nature of the test: KARN assay (luciferase induction). It counts as cell-based. Conditions: Jurkat, ~20 hr, 100% induction = 2 μM SAHA. Here is the method: KARN cells (Jurkat 2C4) were licensed from the laboratory of Dr. John Kam, Case Western Reserve University, School of Medicine. […] An atmosphere of 5% CO2 and 90% humidity was used for all culture work. Cells were split and reseeded into T175 flasks at a density of 0.2×10^6 cells/ml, in 40 ml of media, every 3-4 days.
Day 1: After the 3-4 day growth period, the cells were transferred from the T175 flask to a 50 ml conical tube and gently pelleted at 1000 rpm for 5 minutes. […] These flasks were returned to the incubator.
Day 2: Cell Preparation: The next day, the cells were transferred from each T175 flask to an individual 50 ml conical tube and gently pelleted at 1000 rpm for 5 minutes. The cells were gently resuspended in assay media (30 ml) and pelleted again. […] The cells were counted using the ViCell (Beckman Coulter, Brea, Calif.) and diluted as necessary. A Multidrop (Combi, Thermo Scientific, Waltham, Mass.) with a sterile head was used to seed the cells into the wells of a 384-well solid black plate with lid (Perkin Elmer, Waltham, Mass., catalog number 6007660) at 4000 cells/30 μl/well for the 5% NHS assay media and 6000 cells/30 μl/well for 0.1% NHS assay. The plates were covered and returned to the incubator prior to compound addition.
Compound Preparation: Solutions of control inhibitor suberoylanilide hydroxamic acid (SAHA; Sigma, catalog number SML0061) and test compounds in 100% DMSO were titrated into 384-well polypropylene plates (Labcyte, San Jose, Calif., catalog number P-05525) using a 20-point dose response and 2-fold dilutions. The reference compounds, DMSO and SAHA were then added to the compound plate. Using the Access system (Labcyte), 120 nl of these inhibitor and control solutions were added to the individual wells of the plates containing the cells, and the plates were then returned to the incubator for ˜20 hr (range from 18-24 hr). The final high concentration for SAHA and the test compounds in the assays was 40 μM. The final DMSO concentration in all wells was 0.4%. The minimal induction reference compound used was DMSO and the maximal induction reference compound used was SAHA (2 μM final concentration in the assay).
Day 3: The luciferase detection reagent was prepared by transferring the contents of one bottle of Steady-Glo buffer to one bottle of Steady-Glo substrate (Steady-Glo Luciferase Assay System, Promega, Madison, […]., catalog number E2520), followed by gently mixing until the substrate was thoroughly dissolved and the solution was equilibrated to room temperature. The cell culture assay plates were removed from the incubator and brought to room temperature (15 min). The Steady-Glo Reagent was added to the plates (30 μl/well), which were then covered with a black lid and incubated for 10 minutes at room temperature. The plates were then read for luminescence on an Envision (Perkin Elmer) using the ultrasensitive mode (US LUM), […] and 384-well aperture. Luminescence counts in the DMSO reference wells were considered as 0% induction, while those in the 2 μM SAHA reference wells were considered as 100% induction. Dose response curves were plotted as test compound concentration (X-axis) vs. percent activation (Y-axis) using a 4-parameter fit based on the Levenberg-Marquardt algorithm.

[1] abbreviates: read-out: Karn EC50 with 0.1% NHS, 0.1% normal human serum.
Where [2] appears, read: read-out: Karn EC50 with 5% NHS, 5% normal human serum.

One may read the IC50 as the concentration that gives 50% inhibition. For orientation: EC50 means the midpoint of the concentration-response curve.

Read-outs that look alike come from different tables or passages of the source.

T2 sequence (Q92769 whole entry): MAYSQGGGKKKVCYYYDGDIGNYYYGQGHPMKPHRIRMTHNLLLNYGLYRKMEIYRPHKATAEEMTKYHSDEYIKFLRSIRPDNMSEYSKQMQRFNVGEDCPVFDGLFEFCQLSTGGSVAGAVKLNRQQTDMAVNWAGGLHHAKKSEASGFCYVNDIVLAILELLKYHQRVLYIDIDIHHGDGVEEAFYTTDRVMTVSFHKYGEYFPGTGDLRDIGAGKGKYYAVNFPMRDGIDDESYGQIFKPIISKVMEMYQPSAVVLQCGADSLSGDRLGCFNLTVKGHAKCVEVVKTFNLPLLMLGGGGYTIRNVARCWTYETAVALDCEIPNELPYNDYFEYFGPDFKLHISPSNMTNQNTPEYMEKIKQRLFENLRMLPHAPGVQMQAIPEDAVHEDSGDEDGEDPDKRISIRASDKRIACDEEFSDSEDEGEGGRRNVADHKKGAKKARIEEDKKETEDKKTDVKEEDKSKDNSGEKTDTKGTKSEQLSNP
T3 sequence (O15379 whole entry): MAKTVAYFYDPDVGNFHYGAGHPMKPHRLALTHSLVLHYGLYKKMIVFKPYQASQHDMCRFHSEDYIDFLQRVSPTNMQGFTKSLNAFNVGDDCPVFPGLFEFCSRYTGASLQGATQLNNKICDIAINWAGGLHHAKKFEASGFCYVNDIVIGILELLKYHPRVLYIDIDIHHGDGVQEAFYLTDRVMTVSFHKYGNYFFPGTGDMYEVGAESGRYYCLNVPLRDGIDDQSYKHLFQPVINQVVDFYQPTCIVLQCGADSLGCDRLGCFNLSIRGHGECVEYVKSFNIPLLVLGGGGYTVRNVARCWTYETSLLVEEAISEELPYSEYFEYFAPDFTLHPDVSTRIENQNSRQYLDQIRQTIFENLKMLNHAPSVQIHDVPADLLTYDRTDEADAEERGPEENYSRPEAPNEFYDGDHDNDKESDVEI
T3 sequence (Q9Y618 1-899 partner limits assumed): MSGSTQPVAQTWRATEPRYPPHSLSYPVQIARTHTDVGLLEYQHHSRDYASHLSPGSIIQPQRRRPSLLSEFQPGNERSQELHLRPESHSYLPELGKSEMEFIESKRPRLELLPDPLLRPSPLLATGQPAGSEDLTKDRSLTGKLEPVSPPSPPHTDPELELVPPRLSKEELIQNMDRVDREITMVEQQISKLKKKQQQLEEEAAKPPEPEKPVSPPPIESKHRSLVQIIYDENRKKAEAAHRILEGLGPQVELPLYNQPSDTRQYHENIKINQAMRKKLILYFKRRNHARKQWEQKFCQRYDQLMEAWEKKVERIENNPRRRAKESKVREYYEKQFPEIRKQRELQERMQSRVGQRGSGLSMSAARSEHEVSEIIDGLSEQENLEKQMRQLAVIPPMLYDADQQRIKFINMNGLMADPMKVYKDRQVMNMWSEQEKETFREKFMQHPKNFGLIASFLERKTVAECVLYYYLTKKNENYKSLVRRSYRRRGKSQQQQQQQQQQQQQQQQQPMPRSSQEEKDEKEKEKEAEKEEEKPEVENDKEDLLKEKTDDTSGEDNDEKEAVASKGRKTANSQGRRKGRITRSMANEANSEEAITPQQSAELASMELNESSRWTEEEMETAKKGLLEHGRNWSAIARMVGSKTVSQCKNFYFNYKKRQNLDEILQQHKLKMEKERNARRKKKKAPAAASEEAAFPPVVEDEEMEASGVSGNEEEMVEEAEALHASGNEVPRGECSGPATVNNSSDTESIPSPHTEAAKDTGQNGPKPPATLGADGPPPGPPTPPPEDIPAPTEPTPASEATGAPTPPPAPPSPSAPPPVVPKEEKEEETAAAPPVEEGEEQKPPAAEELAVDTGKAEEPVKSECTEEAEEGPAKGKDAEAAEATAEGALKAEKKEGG
T1 sequence (Q13547 whole entry): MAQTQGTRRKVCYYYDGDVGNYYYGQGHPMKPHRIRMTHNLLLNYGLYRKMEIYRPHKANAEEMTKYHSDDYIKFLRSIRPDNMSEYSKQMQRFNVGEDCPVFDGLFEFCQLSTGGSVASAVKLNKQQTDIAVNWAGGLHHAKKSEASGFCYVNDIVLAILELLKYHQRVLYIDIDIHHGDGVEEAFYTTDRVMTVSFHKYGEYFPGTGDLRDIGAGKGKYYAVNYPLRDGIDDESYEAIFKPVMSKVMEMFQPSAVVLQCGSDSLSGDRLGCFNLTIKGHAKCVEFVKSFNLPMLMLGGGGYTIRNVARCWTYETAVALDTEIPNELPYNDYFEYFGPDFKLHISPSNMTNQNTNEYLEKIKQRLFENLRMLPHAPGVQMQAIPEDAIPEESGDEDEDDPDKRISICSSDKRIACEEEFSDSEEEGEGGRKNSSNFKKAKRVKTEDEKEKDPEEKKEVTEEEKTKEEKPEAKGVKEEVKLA

As for `CCC(=O)CCCCC[C@@H]1NC(=O)[C@H]2CC23CCN(CCOCCn2ccc4cc(ccc4c2=O)-c2cnc1[nH]2)CC3` [Compound 4, (1^1S,4S)-4-(6-oxooctyl)-6^1,6^2-dihydro-5^1H-9-oxa-3-aza-6(6,2)-isoquinolina-12(4,1)-piperidina-5(2,5)-imidazola-1(1,2)-cyclopropanadodecaphane-6^1,2-dione], the IC50 at HDAC1 is 0.61 nM; on HDAC2 ([…] enzyme), 35 nM; at HDAC3/SMRT heterodimer, 7.1 nM. Also, the concentration for a half-maximal effect (EC50) in the test with KARN cells (Jurkat 2C4) (setting [1]) and in the test on KARN cells (Jurkat 2C4) (setting [2]) was over 40000 nM each time.

Consider `CCC(=O)CCCCC[C@@H]1NC(=O)[C@H]2CC23CCN(CCCCN2C4CCC2c2c(cccc24)-c2cnc1[nH]2)CC3` (stereo partly drawn) [Compound 2, (11S,4S)-4-(6-oxooctyl)-61,62,63,64-tetrahydro-51H-3-aza-6(5,9)-1,4-epiminonaphthalena-11(4,1)-piperidina-5(2,5)-imidazola-1(1,2)-cyclopropanaundecaphan-2-one], for which the results for the IC50 on HDAC1, at HDAC2 (1.5 nM enzyme) and on HDAC3/SMRT heterodimer were 45 nM, 176 nM and 24 nM, respectively. Further, the EC50 is 6270 nM in the test with KARN cells (Jurkat 2C4) (setting [1]) and 9060 nM in the test on KARN cells (Jurkat 2C4) (setting [2]).

Turning to `CCC(=O)CCCCC[C@@H]1NC(=O)[C@H]2CC23CCN(C/C=C/CN2C4CCC2c2cc(ccc24)-c2cnc1[nH]2)CC3` (stereo partly drawn) [Compound 3, (1^1S,4S,E)-4-(6-oxooctyl)-6^1,6^2,6^3,6^4-tetrahydro-5^1H-3-aza-6(6,9)-1,4-epiminonaphthalena-11(4,1)-piperidina-5(2,5)-imidazola-1(1,2)-cyclopropanaundecaphan-8-en-2-one], the IC50 on HDAC1 was 2.7 nM; on HDAC2 (1.5 nM enzyme) it was 7 nM; on HDAC3/SMRT heterodimer it was 0.86 nM. Moreover, the EC50 was 73 nM with KARN cells (Jurkat 2C4) (setting [1]) and 76 nM in the test with KARN cells (Jurkat 2C4) (setting [2]).

For the compound `CCC(=O)CCCCC[C@@H]1NC(=O)[C@H]2CC23CCN(CCCCN2C4CCC2c2cc(ccc24)-c2cnc1[nH]2)CC3` (stereo partly drawn) [Compound 10, (3S,6S)-6-(6-oxooctyl)-5,8,20,25,31-pentaazaheptacyclo[23.2.2.1˜7,10˜.1˜11,15˜.0˜1,3˜.0˜14,19˜0.0˜16,20˜]hentriaconta-7,9,11(30),12,14-pentaen-4-one], the results for the IC50 at HDAC1, on HDAC2 (1.5 nM enzyme) and on HDAC3/SMRT heterodimer were 19 nM, 148 nM and 49 nM, respectively. In addition, the values for the EC50 in the test with KARN cells (Jurkat 2C4) (setting [1]) and in the test on KARN cells (Jurkat 2C4) (setting [2]) were 844 nM and 867 nM, respectively.

As to `CCC(=O)CCCCC[C@@H]1NC(=O)[C@H]2CC23CCN(CCCCCCCCn2ccc4cc(ccc4c2=O)-c2cnc1[nH]2)CC3` [Compound 1, (3S,6S)-6-(6-oxooctyl)-5,8,18,27,34-pentaazahexacyclo[25.2.2.1˜7,10˜.1˜11,15˜.1˜14,18˜.0˜1,3˜]tetratriaconta-7,9,11(33),12,14,16-hexaene-4,32-dione], the half-maximal inhibitory concentration (IC50) on HDAC1 amounted to 0.2 nM; on HDAC2 ([…] enzyme) it was 0.43 nM; at HDAC3/SMRT heterodimer, 0.061 nM. Also, the EC50 with KARN cells (Jurkat 2C4) (setting [1]) worked out at 14 nM; in the test on KARN cells (Jurkat 2C4) (setting [2]) it was 16 nM.

Regarding `CCC(=O)CCCCC[C@@H]1NC(=O)CN(C)CCCCOCCCCn2ccc3cc(ccc3c2=O)-c2cnc1[nH]2` [Compound 6, (3S)-7-methyl-3-(6-oxooctyl)-11,12-dihydro-21H-12-oxa-4,7-diaza-1(6,2)-isoquinolina-2(5,2)-imidazolacyclohexadecaphane-11,5-dione], the figures for the IC50 on HDAC1, on HDAC2 ([…] enzyme) and at HDAC3/SMRT heterodimer were 28 nM, 595 nM and 248 nM, respectively. The EC50 in the test with KARN cells (Jurkat 2C4) (setting [1]) stood at 2500 nM; with KARN cells (Jurkat 2C4) (setting [2]) it was 3510 nM.

As for `CCC(=O)CCCCC[C@@H]1NC(=O)[C@H]2CC23CCN(CCCCCOc2ccc4cc(ccc4n2)-c2cnc1o2)CC3` [Compound 9], the IC50 came to 24 nM on HDAC1, 335 nM at HDAC2 ([…] enzyme) and 150 nM on HDAC3/SMRT heterodimer. The EC50 in the test with KARN cells (Jurkat 2C4) (setting [1]) and in the test with KARN cells (Jurkat 2C4) (setting [2]) was over 40000 nM throughout.

As to `CCC(=O)CCCCC[C@@H]1NC(=O)[C@H]2CC23CCN(CCCOCCn2ccc4cc(ccc4c2=O)-c2cnc1[nH]2)CC3` [Compound 11, (3S,6S)-6-(6-oxooctyl)-21-oxa-5,8,18,25,32-pentaazahexacyclo[23.2.2.1˜7,10˜0.1˜11,15˜0.1˜14,18˜0.0˜1,3˜] dotriaconta-7,9,11(31),12,14,16-hexaene-4,30-dione], the IC50 was found to be 0.11 nM on HDAC1, 22 nM on HDAC2 ([…] enzyme) and 2.6 nM on HDAC3/SMRT heterodimer. Further, the EC50 in the test with KARN cells (Jurkat 2C4) (setting [1]) and in the test on KARN cells (Jurkat 2C4) (setting [2]) was over 40000 nM each time.

As to `CCC(=O)CCCCC[C@H](NC(=O)[C@H]1CC12CCN(CC)CC2)c1[nH]c2nc1C(=O)NCCCCCc1cccc-2c1` [Compound 13, (S)-6-ethyl-N-((S)-7-oxo-1-((Z)-9-oxo-11H-8-aza-1(2,4)-imidazola-2(1,3)-benzenacyclononaphane-15-yl)nonyl)-6-azaspiro[2.5]octane-1-carboxamide], the values for the IC50 at HDAC1 and on HDAC3/SMRT heterodimer were 109 nM and 103 nM, respectively. For the same compound, the EC50 in the test on KARN cells (Jurkat 2C4) (setting [1]) was over 40000 nM; with KARN cells (Jurkat 2C4) (setting [2]), 12000 nM.
